{"source": "paper PMC5224920", "about": "“Assessing the mechanism and therapeutic potential of modulators of the human Mediator complex-associated protein kinases” (eLife, 2016)", "system": "12 single or co-culture in vitro tissue models of primary cells", "assay": "Culture/co-culture cell model panel, extracellular biomarkers (DiscoveRx); for CCL2/MCP-1: reference of the scale not given here; for CD38: reference of the scale not given here; for CD40: reference of the scale not given here; for CD69: reference of the scale not given here; for CXCL8/IL-8: reference of the scale not given here; for CXCL9/MIG: reference of the scale not given here; for IL-1alpha: reference of the scale not given here; for M-CSF: reference of the scale not given here; for PBMC Cytotoxicity: reference of the scale not given here", "type": "cell-based, human", "key": {"[1]": {"conditions": "/Mphg Huvec+macrophages, 1.00E0 nM"}, "[2]": {"conditions": "/Mphg Huvec+macrophages, 1.00E1 nM"}, "[3]": {"conditions": "/Mphg Huvec+macrophages, 1.00E2 nM"}, "[4]": {"conditions": "/Mphg Huvec+macrophages, 1.00E3 nM"}, "[5]": {"conditions": "/Mphg Huvec+macrophages, 1.00E4 nM"}}}
{"smiles": "CN1c2ccc(-c3cncc(Cl)c3N3CCC4(CC3)CNC(=O)O4)cc2CS1(=O)=O", "note": "[CMPD2]", "values": [{"measurement": "Collagen III", "setting": "/HDFNo, 1.00E3 nM", "result": 0.037}, {"measurement": "CCL2/MCP-1", "setting": "/HDFNo, 1.00E4 nM", "result": 0.068}, {"measurement": "CD54/ICAM-1", "setting": "/HDFNo, 1.00E4 nM", "result": 0.057}, {"measurement": "CD106/VCAM-1", "setting": "/HDFNo, 1.00E4 nM", "result": 0.067}, {"measurement": "Collagen I", "setting": "/HDFNo, 1.00E4 nM", "result": 0.071}, {"measurement": "Collagen III", "setting": "/HDFNo, 1.00E4 nM", "result": 0.073}, {"measurement": "CCL2/MCP-1", "setting": "[1]", "result": 0.022}, {"measurement": "CCL3/MIP-1alpha", "setting": "[1]", "result": 0.000424}, {"measurement": "CD40", "setting": "[1]", "result": 0.00851}, {"measurement": "CD69", "setting": "[1]", "result": 0.038}, {"measurement": "CD106/VCAM-1", "setting": "[1]", "result": 0.069}, {"measurement": "CXCL8/IL-8", "setting": "[1]", "result": 0.053}, {"measurement": "IL-1alpha", "setting": "[1]", "result": 0.041}, {"measurement": "M-CSF", "setting": "[1]", "result": -0.019}, {"measurement": "SRB", "setting": "[1]", "result": -0.007}, {"measurement": "SRB-Mphg", "setting": "[1]", "result": 0.018}, {"measurement": "sIL-10", "setting": "[1]", "result": 0.074}, {"measurement": "CCL2/MCP-1", "setting": "[2]", "result": -0.032}, {"measurement": "CCL3/MIP-1alpha", "setting": "[2]", "result": -0.016}, {"measurement": "CD40", "setting": "[2]", "result": -0.000836}, {"measurement": "CD69", "setting": "[2]", "result": 0.026}, {"measurement": "CD106/VCAM-1", "setting": "[2]", "result": 0.052}, {"measurement": "CXCL8/IL-8", "setting": "[2]", "result": -0.00092}, {"measurement": "IL-1alpha", "setting": "[2]", "result": 0.023}, {"measurement": "M-CSF", "setting": "[2]", "result": -0.033}, {"measurement": "SRB", "setting": "[2]", "result": -0.013}, {"measurement": "SRB-Mphg", "setting": "[2]", "result": 0.006}, {"measurement": "sIL-10", "setting": "[2]", "result": 0.045}, {"measurement": "CCL2/MCP-1", "setting": "[3]", "result": -0.044}, {"measurement": "CCL3/MIP-1alpha", "setting": "[3]", "result": -0.018}, {"measurement": "CD40", "setting": "[3]", "result": 0.014}, {"measurement": "CD69", "setting": "[3]", "result": -0.029}, {"measurement": "CD106/VCAM-1", "setting": "[3]", "result": 0.050}, {"measurement": "CXCL8/IL-8", "setting": "[3]", "result": 0.00849}, {"measurement": "IL-1alpha", "setting": "[3]", "result": 0.033}, {"measurement": "M-CSF", "setting": "[3]", "result": -0.037}, {"measurement": "SRB", "setting": "[3]", "result": -0.017}, {"measurement": "SRB-Mphg", "setting": "[3]", "result": 0.018}, {"measurement": "sIL-10", "setting": "[3]", "result": -0.065}, {"measurement": "CCL2/MCP-1", "setting": "[4]", "result": -0.085}, {"measurement": "CCL3/MIP-1alpha", "setting": "[4]", "result": -0.034}, {"measurement": "CD40", "setting": "[4]", "result": 0.00225}, {"measurement": "CD69", "setting": "[4]", "result": 0.036}, {"measurement": "CD106/VCAM-1", "setting": "[4]", "result": 0.021}, {"measurement": "CXCL8/IL-8", "setting": "[4]", "result": 0.012}, {"measurement": "IL-1alpha", "setting": "[4]", "result": 0.019}, {"measurement": "M-CSF", "setting": "[4]", "result": -0.046}, {"measurement": "SRB", "setting": "[4]", "result": -0.017}, {"measurement": "SRB-Mphg", "setting": "[4]", "result": 0.008}, {"measurement": "sIL-10", "setting": "[4]", "result": -0.137}, {"measurement": "CCL2/MCP-1", "setting": "[5]", "result": -0.107}, {"measurement": "CCL3/MIP-1alpha", "setting": "[5]", "result": -0.064}, {"measurement": "CD40", "setting": "[5]", "result": -0.00011}, {"measurement": "CD69", "setting": "[5]", "result": 0.061}, {"measurement": "CD106/VCAM-1", "setting": "[5]", "result": 0.027}, {"measurement": "CXCL8/IL-8", "setting": "[5]", "result": 0.023}, {"measurement": "IL-1alpha", "setting": "[5]", "result": 0.024}, {"measurement": "M-CSF", "setting": "[5]", "result": -0.054}, {"measurement": "SRB", "setting": "[5]", "result": -0.021}, {"measurement": "SRB-Mphg", "setting": "[5]", "result": -0.007}, {"measurement": "sIL-10", "setting": "[5]", "result": -0.266}, {"measurement": "CCL2/MCP-1", "setting": "/TH2, 1.00E0 nM", "result": 0.046}, {"measurement": "CCL26/Eotaxin-3", "setting": "/TH2, 1.00E0 nM", "result": -0.081}, {"measurement": "CD38", "setting": "/TH2, 1.00E0 nM", "result": -0.015}, {"measurement": "CD40", "setting": "/TH2, 1.00E0 nM", "result": -0.063}, {"measurement": "CD69", "setting": "/TH2, 1.00E0 nM", "result": -0.031}, {"measurement": "CD87/uPAR", "setting": "/TH2, 1.00E0 nM", "result": -0.079}, {"measurement": "CD106/VCAM-1", "setting": "/TH2, 1.00E0 nM", "result": 0.031}, {"measurement": "CXCL8/IL-8", "setting": "/TH2, 1.00E0 nM", "result": 0.026}, {"measurement": "CXCL9/MIG", "setting": "/TH2, 1.00E0 nM", "result": 0.021}, {"measurement": "Collagen IV", "setting": "/TH2, 1.00E0 nM", "result": -0.017}, {"measurement": "PBMC Cytotoxicity", "setting": "/TH2, 1.00E0 nM", "result": -0.023}, {"measurement": "SRB", "setting": "/TH2, 1.00E0 nM", "result": -0.037}, {"measurement": "sIL-17A", "setting": "/TH2, 1.00E0 nM", "result": 0.106}, {"measurement": "sIL-17F", "setting": "/TH2, 1.00E0 nM", "result": -0.026}, {"measurement": "CCL2/MCP-1", "setting": "/TH2, 1.00E1 nM", "result": -0.013}, {"measurement": "CCL26/Eotaxin-3", "setting": "/TH2, 1.00E1 nM", "result": -0.160}, {"measurement": "CD38", "setting": "/TH2, 1.00E1 nM", "result": -0.040}, {"measurement": "CD40", "setting": "/TH2, 1.00E1 nM", "result": -0.104}, {"measurement": "CD69", "setting": "/TH2, 1.00E1 nM", "result": -0.024}, {"measurement": "CD87/uPAR", "setting": "/TH2, 1.00E1 nM", "result": -0.129}, {"measurement": "CD106/VCAM-1", "setting": "/TH2, 1.00E1 nM", "result": 0.033}, {"measurement": "CXCL8/IL-8", "setting": "/TH2, 1.00E1 nM", "result": -0.063}, {"measurement": "CXCL9/MIG", "setting": "/TH2, 1.00E1 nM", "result": 0.013}, {"measurement": "Collagen IV", "setting": "/TH2, 1.00E1 nM", "result": -0.009}, {"measurement": "PBMC Cytotoxicity", "setting": "/TH2, 1.00E1 nM", "result": -0.008}, {"measurement": "SRB", "setting": "/TH2, 1.00E1 nM", "result": -0.062}, {"measurement": "sIL-17A", "setting": "/TH2, 1.00E1 nM", "result": 0.100}, {"measurement": "sIL-17F", "setting": "/TH2, 1.00E1 nM", "result": -0.047}, {"measurement": "CCL2/MCP-1", "setting": "/TH2, 1.00E2 nM", "result": -0.044}, {"measurement": "CCL26/Eotaxin-3", "setting": "/TH2, 1.00E2 nM", "result": -0.160}, {"measurement": "CD38", "setting": "/TH2, 1.00E2 nM", "result": -0.008}, {"measurement": "CD40", "setting": "/TH2, 1.00E2 nM", "result": -0.119}, {"measurement": "CD69", "setting": "/TH2, 1.00E2 nM", "result": -0.012}, {"measurement": "CD87/uPAR", "setting": "/TH2, 1.00E2 nM", "result": -0.098}, {"measurement": "CD106/VCAM-1", "setting": "/TH2, 1.00E2 nM", "result": 0.035}, {"measurement": "CXCL8/IL-8", "setting": "/TH2, 1.00E2 nM", "result": -0.029}]}
